How the values were obtained:
[1] = Solubility of KAYA1; assay type: physicochemical
Description: The Boc protecting group of compound A is cleaved with trifluoro acetic acid (6.7 ml, 87 mmol) in methanol (3 ml, 74 mmol) for 18 hours at room temperature. After evaporation and recrystallization in anisole KAYA1 was characterized by electrospray mass spectrometry: (Mfound 389.1245 m/e, 391.1611 m/e, Mcalc 388.12 m/e, 390.12 m/e); 1H NMR spectroscopy (CD3OD): S=1.39 ppm (m, 4H), 1.59 ppm (m, 2H), 1.64 ppm (m, 2H), 2.80 ppm (t, 2H), 3.24 ppm (t, 2H), 7.03 ppm (d, 1H), 7.08 ppm (d, 1H), 7.42 ppm (d, 1H), 7.65 ppm (d, 1H), 7.92 ppm (s, 1H); UV-Vis spectrophotometry (Absmax: 574 nm and 623 nm) and fluorimetry (Emmax: 660 nm).

[2] = test system: membranes of live HeLa cells; assay: In vivo labelling of live cells, confocal laser scanning microscopy; assay type: cell-based; settings: live HeLa cells after incubation with KAYA1 labelling solution (FIGS. 2a to 2c)
Description: A protocol for the labelling of live cells was optimized for cultured HeLa cells (epithelial, cervical carcinoma), for LnCAP (Prostatacancer, fibroblasts) and VH7 (foreskin fibroblasts) that are adhering to coverslips. Cells are cultured on coverslips in DEMEM (VH7, HeLa) RPMI (LnCAP) with 10% foetal calf serum, 1 mM glutamine and antibiotics and incubated at 37° C. in an atmosphere of 5% CO2. A 5 μM solution of KAYA1 is prepared in a HEPES-Glucose buffer medium containing 115 mM NaCl, 1.2 mM CaCl2, 1.2 mM MgCl2, 1.2 mM K2HPO4, 20 mM HEPES, 10 mM Glucose, pH 7.4. After removing the cell medium the cells are incubated with the labeling solution for 1 minute at 37° C. The labeling solution is removed, the cells washed in 1×PBS and incubated with the cell medium, prior to analysis.
(§1) The System used was a Leica DM IRBE (TSC/SP2) microscope operating with a helium/neon laser. Detection of all probes was visualized with the laser emission line 633 nm, the detection window was realized between 650 nm-800 nm.
CLSM allows the blur from out of focus regions of the fluorescent specimen to be blocked, resulting in crisp, sharp images from well defined planes in the axial direction. Therefore the images presented here show well defined optical sections in z-axis of the microscope.

[3] = test system: cell membranes of fixed cells; assay: In vitro labelling of fixed cells; assay type: cell-based; settings: formaldehyde-fixed cells, 5 μM in 1×PBS, 5 minutes at 37° C.
Description: Staining the cell membranes of fixed cells is also compatible with KAYA1. For staining, the cells are cultured at the same conditions as described for in vivo labelling. The cells are fixed with HEPEM buffer containing 3.7% formaldehyde, 65 mM PIPES, 30 mM HEPES, 10 mM EGTA, 2 mM MgCl2, pH 6.9 for 15 min. Then the cells are washed twice with 1×PBS for 7.5 min. Finally the cell membranes are stained with KAYA1 (5 μM in 1×PBS) for 5 minutes at 37° C., washed with 1×PBS and covered with Vectashield.
as §1

[4] = test system: HeLa cell; assay: Colocalization experiments with wheat-germ agglutinin (WGA); assay type: cell-based; settings: in vivo stains with KAYA1 compared with WGA in fixed cells (FIGS. 2a to 2c, 3a to 3c)
Text: Wheat-germ agglutinin (WGA) is a glycoprotein (lectin) that recognizes and binds to specific glycoconjugates such as N-acetylneuraminic acid, N-acetyl glucosamine, membrane glycoprotein, chitin, cartilage, glucosamineglycans, glycolipids, and glycoproteins with sialic acid residues (cf. Monsigny M., Roche A-C., Sene C., raget-Dana R., Delmotte F., Sugar-Lectin Interactions: How does Wheat-germ Agglutinin bind Sialoglycoconjugates?, Eur. J. Biochem., 1980, (104), 147-153; Wright C S., Crystal structure of a wheat germ agglutinin/glycophorin-sialoglycopeptide receptor complex. Structural Basis for cooperative lectin-cell binding, J. Biol. Chem., 1992, 267(20), 14345-52). WGA is commonly used to stain the golgi apparatus, nuclear envelop and plasma membrane of fixed cells.
For the colocalization experiments the cells are stained with KAYA1 at the same conditions as described for in vivo labelling. Then the cells are fixed with HEPEM buffer and the membranes of the cells are permeabilized 30 min at 4° C. with 50 ml 1×PBS containing 50 mg Saponin. After washing the cells with 1×PBS for 5 min at room temperature the cells are incubated 15 min with 50 μg/ml WGA at 37° C. Finally the cells are washed with 1×PBS and covered with Vectashield, prior to analysis.

NCCCCCCNc1ccc(O)c2c1C(=O)c1c(O)ccc(Cl)c1C2=O [KAYA1, 1-(6-amino-hexylamino)-5-chloro-4,8-dihydroxy-anthraquinone]
solubility in methanol ([1]; methanol): soluble
solubility in water ([1]; water): moderately soluble
membrane structures visualized by the dye [2]: visualizes the cytoplasmatic membrane, the nuclear membrane and the membrane of certain organelles such as endoplasmatic reticulum and golgi apparatus
staining of cell membranes of fixed cells [3]: compatible
similarity of stained regions with binding regions of WGA [4]: high similarity with the specific binding regions of WGA
